Patent US20110224210A1, “NOVEL BIS-AMIDES AS ANTI-MALARIAL AGENTS” (priority 2008, published 2011)
Like-named read-outs stand apart in the source and are kept apart here.

System: P. falciparum K1 (strain resistant to chloroquine and pyrimethamine), erythrocytic stages
Experiment: Plasmodium falciparum in vitro assay, [3H] hypoxanthine incorporation
Assay type: cell-based
Settings: Plasmodium falciparum
How it was run: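 K1 strain parasites grown in human red cells, 2.5% haematocrit, 0.3% parasitaemia, 37 °C, 4% CO2/3% O2; compounds in seven serial doubling dilutions.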

[1] = K1, P. falciparum strain K1, [3H] hypoxanthine incorporation, read-out: IC50 (nM) on K1

| Structure (SMILES) | IC50 [1] [nM] | IC50 (K1, read-out: IC50 (nM) on K1) [nM] |
| --- | --- | --- |
| COCCN(C)C(=O)[C@H](Cc1ccccc1)N(Cc1ccc(N2CCN(C(C)=O)CC2)cc1)C(=O)C=Cc1csc(C)n1 [Example 108, (S)-N-[4-(4-Acetyl-piperazin-1-yl)-benzyl]-N-{1-[(2-methoxy-ethyl)-methyl-carbamoyl]-2-phenyl-ethyl}-3-(2-methyl-thiazol-4-yl)-acrylamide] | 225 | – |
| CCN(CC)c1ccc(CN(C)CCN(C)C(=O)[C@H](Cc2ccccc2)N(Cc2ccc(N3CCN(C(C)=O)CC3)cc2)C(=O)C=Cc2ccc(C(F)(F)F)cc2)cc1 [Example 239, (S)-N-[4-(4-Acetyl-piperazin-1-yl)-benzyl]-N-[1-({2-[(4-diethylamino-benzyl)-methyl-amino]-ethyl}-methyl-carbamoyl)-2-phenyl-ethyl]-3-(4-trifluoromethyl-phenyl)-acrylamide] | 61 | – |
| CC(=O)N1CCN(c2ccc(CN(C(=O)C=Cc3ccc(C(F)(F)F)cc3)[C@@H](Cc3ccccc3)C(=O)N(C)CCOCc3cccc(C#N)c3)cc2)CC1 [Example 185, (S)-N-[4-(4-Acetyl-piperazin-1-yl)-benzyl]-N-(1-{[2-(3-cyano-benzyloxy)-ethyl]-methyl-carbamoyl}-2-phenyl-ethyl)-3-(4-trifluoromethyl-phenyl)-acrylamide, formic acid] | 19 | – |
| CC(=O)N1CCN(c2ccc(CN(C(=O)C=Cc3ccc(C(F)(F)F)cc3)[C@@H](Cc3ccccc3)C(=O)N(C)CCN(C)Cc3ccc(C)c(F)c3F)cc2)CC1 [Example 251, (S)-N-[4-(4-Acetyl-piperazin-1-yl)-benzyl]-N-[1-({2-[(2,3-difluoro-4-methyl-benzyl)-methyl-amino]-ethyl}-methyl-carbamoyl)-2-phenyl-ethyl]-3-(4-trifluoromethyl-phenyl)-acrylamide] | 53 | – |
| CCOCCN(C)C(=O)[C@H](Cc1ccccc1)N(Cc1ccc(N2CCN(C(C)=O)CC2)cc1)C(=O)C=Cc1ccc(C(F)(F)F)cc1 [Example 193, (S)-N-[4-(4-Acetyl-piperazin-1-yl)-benzyl]-N-{1-[(2-ethoxy-ethyl)-methyl-carbamoyl]-2-phenyl-ethyl}-3-(4-trifluoromethyl-phenyl)-acrylamide] | 20 | – |
| CC(=O)N1CCN(c2ccc(CN(C(=O)C=Cc3ccc(C(F)(F)F)cc3)[C@@H](Cc3ccccc3)C(=O)N(C)CCN(C)Cc3ccc(OCCCN(C)C)cc3)cc2)CC1 [Example 246, (S)-N-[4-(4-Acetyl-piperazin-1-yl)-benzyl]-N-{1-[(2-{[4-(3-dimethylamino-propoxy)-benzyl]-methyl-amino}-ethyl)-methyl-carbamoyl]-2-phenyl-ethyl}-3-(4-trifluoromethyl-phenyl)-acrylamide] | 64 | – |
| COCCN(C)C(=O)[C@H](Cc1ccccc1)N(Cc1ccc(N2CCOCC2)cc1)C(=O)C=Cc1c(C)nn(C)c1C [Example 60, (S)-N-{1-[(2-Methoxy-ethyl)-methyl-carbamoyl]-2-phenyl-ethyl}-N-(4-morpholin-4-yl-benzyl)-3-(1,3,5-trimethyl-1H-pyrazol-4-yl)-acrylamide] | 48 | – |
| CC(=O)N(c1ccccc1)c1ccc(CN(C)C(=O)[C@H](Cc2ccccc2)N(Cc2ccc(N3CCOCC3)cc2)C(=O)C=Cc2ccc(C(F)(F)F)nc2)cc1 [Example 276] | 65 | – |
| CCN(CC)CCCC(C)Nc1ccnc2cc(Cl)ccc12 (centres unmarked) [Chloroquine] | – | 194 |
| CN(CCOCc1ccc2c(c1)nnn2C)C(=O)[C@H](Cc1ccccc1)N(Cc1ccc(N2CCOCC2)cc1)C(=O)C=Cc1ccc(C(F)(F)F)cc1 [Example 202, (S)-N-(1-{Methyl-[2-(1-methyl-1H-benzotriazol-5-ylmethoxy)-ethyl]-carbamoyl}-2-phenyl-ethyl)-N-(4-morpholin-4-yl-benzyl)-3-(4-trifluoromethyl-phenyl)-acrylamide] | 14 | – |
| COCCN(C)C(=O)[C@H](Cc1ccccc1)N(Cc1ccc(N2CCN(C(C)=O)CC2)cc1)C(=O)C=Cc1nc(C)oc1C [Example 110, (S)-N-[4-(4-Acetyl-piperazin-1-yl)-benzyl]-3-(2,5-dimethyl-oxazol-4-yl)-N-{1-[(2-methoxy-ethyl)-methyl-carbamoyl]-2-phenyl-ethyl}-acrylamide] | 324 | – |
| COc1cc(COCCN(C)C(=O)[C@H](Cc2ccccc2)N(Cc2ccc(N3CCOCC3)cc2)C(=O)C=Cc2ccc(C(F)(F)F)cc2)cc(OC)c1 [Example 199, (S)-N-(1-{[2-(3,5-Dimethoxy-benzyloxy)-ethyl]-methyl-carbamoyl}-2-phenyl-ethyl)-N-(4-morpholin-4-yl-benzyl)-3-(4-trifluoromethyl-phenyl)-acrylamide] | 34 | – |

The next lines start with results.

| IC50 [1] [nM] | Structure (SMILES) | IC50 (K1, read-out: IC50 (nM) on K1) [nM] |
| --- | --- | --- |
| 65 | CN(C)[C@@H]1CCN(C(=O)[C@H](Cc2ccccc2)N(Cc2ccc(-c3ccccn3)cc2)C(=O)C=Cc2ccc(C(F)(F)F)nc2)C1 [Example 55, N-[(S)-1-Benzyl-2-((R)-3-dimethylamino-pyrrolidin-1-yl)-2-oxo-ethyl]-N-(4-pyridin-2-yl-benzyl)-3-(6-trifluoromethyl-pyridin-3-yl)-acrylamide] | – |
| 14 | CN(C)C1CCN(C(=O)[C@H](Cc2ccccc2)N(Cc2ccc(-c3ccccn3)cc2)C(=O)C=Cc2ccc(C(F)(F)F)nc2)CC1 [Example 7, (S)-N-[1-Benzyl-2-(4-dimethylamino-piperidin-1-yl)-2-oxo-ethyl]-N-(4-pyridin-2-yl-benzyl)-3-(6-trifluoromethyl-pyridin-3-yl)-acrylamide] | – |
| < 8 | COCCN(C)C(=O)[C@H](Cc1ccccc1)N(Cc1ccc(-c2cccnc2)cc1)C(=O)C=Cc1ccc(OC)nc1 [Example 135, (S)-N-{1-[(2-Methoxy-ethyl)-methyl-carbamoyl]-2-phenyl-ethyl}-3-(6-methoxy-pyridin-3-yl)-N-(4-pyridin-3-yl-benzyl)-acrylamide] | – |
| 20 | CN(CCN(C)C(=O)[C@H](Cc1ccccc1)N(Cc1ccc(-c2ccccn2)cc1)C(=O)C=Cc1ccc(C(F)(F)F)cc1)Cc1ccc(Cl)nc1 [Example 221, (S)-N-[1-({2-[(6-Chloro-pyridin-3-ylmethyl)-methyl-amino]-ethyl}-methyl-carbamoyl)-2-phenyl-ethyl]-N-(4-pyridin-2-yl-benzyl)-3-(4-trifluoromethyl-phenyl)-acrylamide] | – |
| 315 | Cc1nc(C=CC(=O)N(Cc2ccc(-c3ccccn3)cc2)[C@@H](Cc2ccccc2)C(=O)N2CCC(N(C)C)CC2)cs1 [Example 11, (S)-N-[1-Benzyl-2-(4-dimethylamino-piperidin-1-yl)-2-oxo-ethyl]-3-(2-methyl-thiazol-4-yl)-N-(4-pyridin-2-yl-benzyl)-acrylamide] | – |
| 12 | CN(CCOCc1cccnc1)C(=O)[C@H](Cc1ccccc1)N(Cc1ccc(N2CCOCC2)cc1)C(=O)C=Cc1ccc(C(F)(F)F)cc1 [Example 203, (S)-N-(1-{Methyl-[2-(pyridin-3-ylmethoxy)-ethyl]-carbamoyl}-2-phenyl-ethyl)-N-(4-morpholin-4-yl-benzyl)-3-(4-trifluoromethyl-phenyl)-acrylamide] | – |
| 31 | COCCN(C)C(=O)[C@H](Cc1ccccc1)N(Cc1ccc(-c2ccccn2)cc1)C(=O)C=Cc1ccc(Cl)nc1 [Example 85, (S)-3-(6-Chloro-pyridin-3-yl)-N-{1-[(2-methoxy-ethyl)-methyl-carbamoyl]-2-phenyl-ethyl}-N-(4-pyridin-2-yl-benzyl)-acrylamide] | – |
| 324 | COCCN(C)C(=O)C(CN1C(=O)C(=O)c2ccccc21)N(Cc1ccc(-c2ccncc2)cc1)C(=O)C=Cc1ccc(C(F)(F)F)cc1 (racemic) [Example 283] | – |
